Reference: patent US8227450B2, “Lysine-based prodrugs of aspartyl protease inhibitors and processes for their preparation” (priority 2005, dated 2012)

Experiment: Bioavailability: plasma concentration after oral administration to rats
Format: in vivo, male Sprague-Dawley rats
Details: for Presence of the unchanged prodrug in the blood samples: 50 mg/kg po as aqueous solution (PBS), HPLC-MS; for Presence of the unchanged prodrug in the blood samples / Delivery of parent drug (PL-100 / PL-337) compared to non-aqueous formulations of the parent drug: rat; for Delivery of parent drug (PL-100 / PL-337) compared to non-aqueous formulations of the parent drug: aqueous dosing, 50 mg/kg po; for AUC: rat plasma, 3 rats
Procedure: To assess the extent of in vivo cleavage of the phosphate group from the putative compounds, PL-100, PL-462 (based on PL-100), PL-337 and PL-515 (based on PL-337) compounds were administered per os (po) (50 mg/kg) to male Sprague-Dawley rats and their plasma concentration measured at different time intervals post-administration. All test articles (PL-100, PL-462, PL-337 and PL-515) were prepared in different vehicle at the final concentration of 25 mg/mL. The vehicle composition is as follows: (1) 20% ethanol; 50% propylene glycol; 0.05% w/v Tween 20 and water (Mix); (2) PBS buffer (PBS). Test articles were administered to male Sprague-Dawley rats at a single oral dose of 50 mg/kg. Each article was tested in three rats. Blood samples (0.2-0.3 mL) were collected at the post-dose time of 10, 20, 40, 60, 120, 180 and 360 minutes. The harvested blood was centrifuged to isolate plasma. The resulting plasma was separated and stored at −70° C. Plasma samples together with standards and quality control samples were treated to precipitate proteins, then analyzed by HPLC-MS, for the presence of PL-462, PL-100, PL-515 and PL-337.

[1] = prodrug dosed 50 mg/Kg po in PBS vehicle, parent drug detected (PL-100 or PL-337)
[2] = parent drug dosed 50 mg/Kg po in Mix vehicle (20% ethanol; 50% propylene glycol; 0.05% w/v Tween 20 and water)

COC(=O)N[C@H](C(=O)NCCCC[C@@H](COP(=O)(O)O)N(CC(C)C)S(=O)(=O)c1ccc(N)c(F)c1)C(c1ccccc1)c1ccccc1 [PL-515, (1S,5S)-(1-{5-[(4-amino-3-fluoro-benzenesulfonyl)-isobutyl-amino]-6-phosphonooxy-hexylcarbamoyl}-2,2-diphenyl-ethyl)-carbamic acid methyl ester]
Presence of the unchanged prodrug in the blood samples: None of the PL-462 and PL-515 compounds, delivered as aqueous solutions, are detected
Delivery of parent drug (PL-100 / PL-337) compared to non-aqueous formulations of the parent drug: equivalent to slightly superior
AUC [1]: 1.075 ± 0.625 μg/hr * ml

COC(=O)N[C@H](C(=O)NCCCC[C@@H](CO)N(CC(C)C)S(=O)(=O)c1ccc(N)c(F)c1)C(c1ccccc1)c1ccccc1 [PL-337, (1-{5-[(4-amino-3-fluoro-benzenesulfonyl)-isobutyl-amino]-6-hydroxy-hexylcarbamoyl}-2,2-diphenyl-ethyl)-carbamic acid methyl ester]
AUC [2]: 1.180 ± 0.196 μg/hr * ml

COC(=O)N[C@H](C(=O)NCCCC[C@@H](COP(=O)([O-])[O-])N(CC(C)C)S(=O)(=O)c1ccc(N)cc1)C(c1ccccc1)c1ccccc1.[Na+].[Na+] [PL-462, (1S,5S)-(1-{5-[(4-amino-benzenesulfonyl)-isobutyl-amino]-6-phosphonooxy-hexylcarbamoyl}-2,2-diphenyl-ethyl)-carbamic acid methyl ester sodium salt]
Presence of the unchanged prodrug in the blood samples: None of the PL-462 and PL-515 compounds, delivered as aqueous solutions, are detected
Delivery of parent drug (PL-100 / PL-337) compared to non-aqueous formulations of the parent drug: equivalent to slightly superior
AUC [1]: 0.816 ± 0.295 μg/hr * ml

COC(=O)N[C@H](C(=O)NCCCC[C@@H](CO)N(CC(C)C)S(=O)(=O)c1ccc(N)cc1)C(c1ccccc1)c1ccccc1 [PL-100, (1S,5S)-(1-{5-[(4-amino-benzenesulfonyl)-isobutyl-amino]-6-hydroxy-hexylcarbamoyl}-2,2-diphenyl-ethyl)-carbamic acid methyl ester]
AUC [2]: 0.675 ± 0.171 μg/hr * ml
